Measurements: patent publication EP0711545B1, “Aqueous mild surfactants containing preparations for cosmetic and cleaning use” (priority 1994, dated 1996)

Tested on: Rote Blutkörperchen
Experiment: Red blood cell test (RBC test): lysis of blood cells and denaturation of released haemoglobin
Type: cell-based
Text: Fettsäureamidopropylbetaine, abgeleitet von Fettsäuren unterschiedlicher Kettenlängen, werden mit Hilfe einer in-vitro-Methode, dem Rote-Blutkörperchen-Test (RBC), auf ihre physiologische Verträglichkeit untersucht.
Hierbei werden zur Charakterisierung der typischen irritativen Wechselbeziehung von Tensiden mit intakten Zellstrukturen die Zerstörung der Blutzellen durch Lyse und die Denaturierung des freigesetzten Hämoglobins gemessen. Das Ergebnis stellt der Quotient aus Lyse (L) und Denaturierung (D) L/D dar. Je kleiner der L/D-Wert ist, desto reizender ist die Substanz bzw. Formulierung einzustufen.

[1] = Table 1: single betaines, the smaller L/D, the more irritant
[2] = Table 1: single fatty acid amidopropyl betaines
[3] = Table 3: 10 % betaine + 5 % APG in water
[4] = Table 3: 10 % betaine + 5 % LSSDNa in water
[5] = Table 3: 10 % betaine + 5 % NaLSC in water

SMILES	L/D [1]	Denaturierung (D) [2]	Lyse (L) [2]	Denaturierung (D) [3]	L/D [3]	Lyse (L) [3]	Denaturierung (D) [4]	L/D [4]	Lyse (L) [4]	Denaturierung (D) [5]	L/D [5]	Lyse (L) [5]
CCCCCCCC(=O)NCCC[N+](C)(C)CC(=O)[O-] [C8-Betain]	>> 100	keine Hämolyse	keine Hämolyse	–	–	–	–	–	–	–	–	–
CCCCCCCCCCCC(=O)NCCC[N+](C)(C)CC(=O)[O-] [C12-Betain]	8,9	17	151	<1	>100	81	13	3,8	49	18	4,7	84
CCCCCCCCCC(=O)NCCC[N+](C)(C)CC(=O)[O-] [C10-Betain]	>> 100	keine Hämolyse	keine Hämolyse	–	–	–	–	–	–	–	–	–
CCCCCCCCCCCCCC(=O)NCCC[N+](C)(C)CC(=O)[O-] [C14-Betain]	1,4	9,2	13	–	–	–	–	–	–	–	–	–
CCCCCCCCCCCCCCCC(=O)NCCC[N+](C)(C)CC(=O)[O-] [C16-Betain]	1,0	4,4	4,4	–	–	–	–	–	–	–	–	–
